In series [1] the test system is NCI-H1975 cells. Briefly: Colony formation, NCI-H1975. The series is classed as cell-based, human. The settings on record: NCI-H1975, 72 h treatment then 10 days culture. From the text: (§1) The cells were then washed once with PBS and continue to culture with full-growth medium for 10 days, change the culture medium to fresh ones every three days. Cells were stained with 0.1% crystal violet after fixing with 100% methanol.

In series [2] the test system is A549 cells. The series can be described thus: Colony formation, A549. The series is classed as cell-based, human. The settings on record: A549, 72 h treatment then 10 days culture.
Text: as §1

Series [3] can be described thus: Pharmacokinetic study in male ICR mice. The series is classed as in vivo. The settings on record: mouse, plasma, po 10 mg/kg. The protocol:
The male ICR mice (25–30 g, 7–8 weeks of age) were purchased from Koatech Co. (Pyeontak, Kyonggi-do, Korea). Animals were fed with free access to standard chow diet and water. All animal use and care followed the guidelines approved by the Institutional Animal Care and Use Committee of Flow Sciences.INC. (Approval No.: NDDC PK 2018 076 01-DFX117-(4364)). Animals were acclimatized for 1 week at of 23–25 °C temperature, 40–70% relative humidity and 12 h light/12 h dark cycle before study. […] Approximately 80 µL of blood samples were collected into BD Microtainer plasma separator tubes at times 0.25, 0.5, 1.0, 2.0, 4.0, 6.0 and 8.0 h through the saphenous vein over […] post dosing. Blood samples were centrifuged at 15,000 rpm for 5 min and stored in a freezer until analysis. Protein precipitation was conducted on 15 µL of plasma samples using three volumes of acetonitrile containing carbamazepine as an internal analytical standard. After centrifugation, the supernatant was analyzed on a Nexera XR system (Shimadzu, Japan) system coupled with TSQ vantage triple quadruple (Thermo Fisher Scientific, Waltham, MA, USA) system. Chromatographic separation was performed on a Kinetex XB-C18 column (2.1 × 100 mm, 2.6 μm, particle size; Phenomenex, CA, USA) running a linear gradient of solvent A (0.1% formic acid in deionized water) and B (0.1% formic acid in acetonitrile). Detection of the analyte ions was performed in a positive MRM mode, monitoring the following precursor >product ion transitions: m/z 573.1 > 417.8. Analytical data were processed using MassHunter B04.01 (Agilent Korea, Seoul, Korea). Pharmacokinetic parameters were calculated via non-compartmental analysis of the plasma concentration-time profiles using PK Solver.

Series [4] relates to NCI-H1975 cells. The series can be described thus: Cell viability (SRB assay), NCI-H1975. In kind it is cell-based, human.
Protocol: (§4) Cell viability assay was performed using SRB assay as described previously [22].
Series [5] concerns A549 cells. The series can be described thus: Annexin V-FITC/PI apoptosis assay, A549. In kind it is cell-based, human. The settings on record: A549, 0.4 μM, 48 h; control 6.09%. The protocol:
(§2) Annexin FITC/PI assay was performed as described previously. Cell apoptosis was evaluated using Annexin V FITC/PI apoptosis detection kit (BD Biosciences, San Jose, CA, USA) according to the manufacturer’s instruction. […] Wash the cells with cold PBS buffer before staining with 5 μL of Annexin V-FITC and 5 μL of propidium iodide in the 500 μL 1× binding buffer. Finally, the stained cells were incubated for 15 min at room temperature in the dark before analyzing with FACS Calibur flow cytometer, (Becton Dickinson, San Jose, CA, USA).

Series [6] concerns A549 cells. The series can be described thus: Cell viability (SRB assay), A549. In kind it is cell-based, human. (The SRB assay estimates cell density from bound dye.)
Protocol: as §4
Another series has as its system A549 xenograft. Briefly: A549 nude mouse xenograft model. The series is classed as in vivo. The protocol:
(§3) All animal experiments were followed the guidelines approved by the Seoul National University Institutional Animal Care and Use Committee (IACUC permission number SNU-170103-2-1). […]. Drug treatment started when their tumor volumes reached to 80–100 mm^3. […]. Body weight and tumor size were measured three times per week. The tumor size was calculated according to the formula V = 0.5 × length × width^2.

For series [7], the system named is NCI-H1975 cells. Briefly: Annexin V-FITC/PI apoptosis assay, NCI-H1975. In kind it is cell-based, human. Conditions: NCI-H1975, 0.4 μM, 48 h; control 4.15%. The protocol: as §2
Another series has as its system phospho-Met. The series can be described thus: Phospho-receptor tyrosine kinase array, A549. In kind it is cell-based, human. The settings on record: A549 cells, 0.2 μM. The protocol:
Phosphorylated RTKs were measured with the Human Phospho-RTK Array Kit (ARY001B) from R&D Systems (Minneapolis, MN, USA) according to the manufacturer’s instructions.

The target in a further series is T1, c-Met (Homo sapiens, UniProt P08581).
T1 construct: purchased Abnova KA0055
Briefly: c-Met kinase activity assay (Met Kinase Assay/Inhibitor Screening Kit). In kind it is biochemical. The settings on record: cell-free kinase activity.

In another series the test system is NCI-H1975 xenograft. The series can be described thus: NCI-H1975 nude mouse xenograft model. In kind it is in vivo. As to the method:
as §3

Series [8] is described as follows: Cell viability (SRB assay), normal MRC-5. The settings on record: human, normal cell line. In kind it is cell-based.
Protocol: as §4

This is an account of results in PMC6562471 (Cancers, 2019).

Molecules are shown by their SMILES.

T1 sequence (P08581 25-1390): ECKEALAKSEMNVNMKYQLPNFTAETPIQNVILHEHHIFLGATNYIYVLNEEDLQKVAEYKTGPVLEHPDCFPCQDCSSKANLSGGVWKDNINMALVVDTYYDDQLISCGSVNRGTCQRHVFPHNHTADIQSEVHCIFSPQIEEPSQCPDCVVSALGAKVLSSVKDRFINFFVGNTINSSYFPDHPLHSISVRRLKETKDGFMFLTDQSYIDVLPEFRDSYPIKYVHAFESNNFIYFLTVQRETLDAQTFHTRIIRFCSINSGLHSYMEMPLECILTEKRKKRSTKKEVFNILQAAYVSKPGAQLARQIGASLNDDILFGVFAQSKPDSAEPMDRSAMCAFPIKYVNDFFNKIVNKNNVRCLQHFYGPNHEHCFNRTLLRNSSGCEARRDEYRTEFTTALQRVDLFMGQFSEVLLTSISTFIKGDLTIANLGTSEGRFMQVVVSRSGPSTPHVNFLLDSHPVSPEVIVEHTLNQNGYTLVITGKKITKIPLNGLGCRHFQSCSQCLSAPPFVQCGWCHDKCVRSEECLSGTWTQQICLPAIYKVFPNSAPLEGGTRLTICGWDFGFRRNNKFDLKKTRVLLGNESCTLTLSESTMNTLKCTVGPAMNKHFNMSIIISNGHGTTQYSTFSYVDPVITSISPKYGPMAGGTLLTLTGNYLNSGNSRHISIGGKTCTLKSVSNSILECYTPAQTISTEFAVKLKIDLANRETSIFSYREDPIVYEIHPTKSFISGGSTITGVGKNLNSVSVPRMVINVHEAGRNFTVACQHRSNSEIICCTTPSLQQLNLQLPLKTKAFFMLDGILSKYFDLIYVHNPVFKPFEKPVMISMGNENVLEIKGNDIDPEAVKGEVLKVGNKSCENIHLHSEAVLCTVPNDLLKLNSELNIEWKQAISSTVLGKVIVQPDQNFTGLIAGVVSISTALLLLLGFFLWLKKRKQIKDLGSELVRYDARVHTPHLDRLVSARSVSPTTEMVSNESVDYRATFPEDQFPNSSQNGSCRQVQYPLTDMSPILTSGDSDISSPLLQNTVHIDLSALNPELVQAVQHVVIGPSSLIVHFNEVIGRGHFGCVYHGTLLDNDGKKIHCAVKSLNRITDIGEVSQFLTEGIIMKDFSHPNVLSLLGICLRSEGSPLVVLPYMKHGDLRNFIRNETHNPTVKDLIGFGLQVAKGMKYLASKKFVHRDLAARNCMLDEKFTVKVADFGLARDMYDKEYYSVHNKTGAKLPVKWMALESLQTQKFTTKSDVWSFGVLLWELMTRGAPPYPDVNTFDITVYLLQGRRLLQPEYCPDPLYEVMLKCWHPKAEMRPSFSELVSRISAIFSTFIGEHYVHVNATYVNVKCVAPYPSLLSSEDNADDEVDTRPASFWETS

As usually defined, the AUC is concentration integrated over time. Usually Cmax stands for the highest concentration seen after dosing. In general, Tmax refers to the time at which the peak concentration occurs. As a reminder, the half-life is the time needed for the level to fall by half in the phase considered. The term IC50 denotes the point on the concentration scale where inhibition reaches its midpoint. A high value points to weaker potency in that assay. Consider `COc1ncc(-c2ccc3ncc(C(=O)NCCN4CCOCC4)n3c2)cc1NS(=O)(=O)c1ccc(F)cc1F` [DFX117, 6-(5-(2,4-difluorophenylsulfonamido)-6-methoxypyridin-3-yl)-N-(2-morpholinoethyl) imidazo[1,2-a]pyridine-3-carboxamide], for which the Colony formation result in the series on NCI-H1975 cells [1] and with A549 cells [2] was “significantly inhibited” each time. This compound also yielded an AUC in [3] of 3340 ng·h/mL. Further, the Cmax in series [3] is 4500 ng/mL. For the same compound, the Tmax in [3] turned out to be 0.3 h. In addition, the half-life in series [3] was 2.1 h. For the same compound, the MRT inf in series [3] (read-out: MRTinf_obs) was found to be 2.2 h. The “Growth inhibitory activity compared with HS-173” value with NCI-H1975 cells [4] and with A549 cells [6] was “superior to that of HS-173” throughout. Also, the “Population of apoptotic cells (Annexin V positive)” value was determined as 26.84% in the series on A549 cells [5] and 32.75% with NCI-H1975 cells [7]. In addition, the “Overt toxicity or body weight change” value with A549 xenograft (A549 xenograft, 5, 10 or 20 mg/kg orally daily for 23 days) is “No overt toxicity or body weight change was observed”; in the series on NCI-H1975 xenograft (10 or 20 mg/kg orally daily for 23 days) it was “No overt toxicity or body weight change was observed”. Moreover, the “Excised tumor weights on the termination day” value in the series with A549 xenograft (A549 xenograft, oral daily for 23 days) was “significantly inhibited”. Besides, the “Phospho-Met level (phospho-RTK array)” value in the series on phospho-Met is “markedly suppressed”. For the same compound, the IC50 amounted to 17.1 nM at c-Met and 2890 nM in [8]. Also, the Tumor weights result in the series on NCI-H1975 xenograft (oral daily for 23 days) is recorded as “significantly inhibited”.
